In data set [1] the test system is Trypanosoma cruzi. Put plainly: Antitrypanosomal activity against epimastigote forms of Trypanosoma cruzi CL-B5 transfected with Escherichia coli LacZ gene at 100 ug/ml after 72 hrs by chlorophenol red-Beta-D-galactopyranoside-based assay. Type of data set: functional.
Data set [2] has as its system J774. Put plainly: Cytotoxicity against mouse J774 cells assessed as reduction in cell viability at 10 ug/ml after 24 hrs by resazurin-based colorimetric assay. The conditions noted are these: j774, 24 h. Background: Alamar Blue is a resazurin reagent that responds to reducing activity.
Data set [3] concerns J774. Put plainly: Cytotoxicity against mouse J774 cells assessed as reduction in cell viability at 100 ug/ml after 24 hrs by resazurin-based colorimetric assay. Particulars: j774, 24 h.
For data set [4], the system named is Trypanosoma cruzi. Put plainly: Antitrypanosomal activity against epimastigote forms of Trypanosoma cruzi CL-B5 transfected with Escherichia coli beta-galactosidase gene LacZ at 1 ug/ml after 72 hrs by chlorophenol red-Beta-D-galactopyranoside-based assay. Type of data set: functional.
The test system of data set [5] is Trypanosoma cruzi. Put plainly: Antitrypanosomal activity against epimastigote forms of Trypanosoma cruzi CL-B5 transfected with Escherichia coli beta-galactosidase gene LacZ at 10 ug/ml after 72 hrs by chlorophenol red-Beta-D-galactopyranoside-based assay. Type of data set: functional.
In data set [6] the test system is J774. Put plainly: Cytotoxicity against mouse J774 cells assessed as reduction in cell viability at 1 ug/ml after 24 hrs by resazurin-based colorimetric assay. Particulars: j774, 24 h.
Data set [7] relates to Trypanosoma cruzi. Put plainly: Antitrypanosomal activity against amastigote forms of Trypanosoma cruzi CL-B5 expressing Escherichia coli LacZ gene infected in NCTC929 fibroblasts at 1 ug/ml after 7 days by chlorophenol red-Beta-D-galactopyranoside-based assay. Type of data set: functional.
Data set [8] relates to Trypanosoma cruzi. The data set is described as follows: Antitrypanosomal activity against amastigote forms of Trypanosoma cruzi CL-B5 expressing Escherichia coli LacZ gene infected in NCTC929 fibroblasts at 10 ug/ml after 7 days by chlorophenol red-Beta-D-galactopyranoside-based assay. Type of data set: functional.
The test system of data set [9] is Trypanosoma cruzi. The data set is described as follows: Antitrypanosomal activity against amastigote forms of Trypanosoma cruzi CL-B5 expressing Escherichia coli LacZ gene infected in NCTC929 fibroblasts at 100 ug/ml after 7 days by chlorophenol red-Beta-D-galactopyranoside-based assay. Type of data set: functional.

In the case of `CN1C(=O)CN(CCCCCCCl)c2ccc([N+](=O)[O-])cc21`, the Activity with Trypanosoma cruzi [1] is on record as 100%; with J774 [2] it was 63.9%; with J774 [3], 80.7%; with Trypanosoma cruzi [4] it was 25.7%; in the data set with Trypanosoma cruzi [5], 51.2%.

Turning to `CN1C(=O)CN(CCc2ccccc2CCl)c2ccc([N+](=O)[O-])cc21`, the Activity in the data set on Trypanosoma cruzi [1] came out at 100%; with J774 [2] it was 0%; in the data set with J774 [3], 14.5%; with J774 [6], 0%; with Trypanosoma cruzi [7] it was 35.39%; with Trypanosoma cruzi [8], 56.21%. For the same compound, the Activity in the data set with Trypanosoma cruzi [9] worked out at 100%; in the data set with Trypanosoma cruzi [4], 65.5%; in the data set with Trypanosoma cruzi [5], 100%.

As to `O=C1CN(CCCCCl)c2ccc([N+](=O)[O-])cc2N1`, the Activity in the data set on Trypanosoma cruzi [1] was determined as 70.5%; in the data set with J774 [2], 7.4%; with J774 [3], 29%; in the data set with J774 [6] it was 0%; in the data set with Trypanosoma cruzi [4], 21%; in the data set with Trypanosoma cruzi [5], 40.8%.

In the case of `CC1CS(=O)(=O)CCN1/N=C/c1ccc([N+](=O)[O-])o1` (stereo not drawn) [NIFURTIMOX], the Activity in the data set with Trypanosoma cruzi [1] came out at 98.7%; in the data set with J774 [2] it was 0.6%; with J774 [3] it was 25.9%; with J774 [6] it was 0%; in the data set with Trypanosoma cruzi [7], 88.14%; in the data set with Trypanosoma cruzi [8] it was 94.44%. In addition, the Activity was determined as 100% in the data set with Trypanosoma cruzi [9], 75.5% in the data set on Trypanosoma cruzi [4] and 90% in the data set on Trypanosoma cruzi [5].

Take `CCOCc1ccccc1CCN1CC(=O)Nc2cc([N+](=O)[O-])ccc21`: the Activity in the data set on Trypanosoma cruzi [1] was 100%; in the data set with J774 [2] it was 48.5%; with J774 [3], 95.9%; in the data set on Trypanosoma cruzi [4], 28.1%; with Trypanosoma cruzi [5] it was 74.4%.

As to `O=C1CN(CCc2ccccc2CCl)c2ccc([N+](=O)[O-])cc2N1`, the Activity in the data set on Trypanosoma cruzi [1] stood at 100%; in the data set on J774 [2] it was 75.8%; with J774 [3] it was 76.6%; in the data set on J774 [6] it was 4.7%; with Trypanosoma cruzi [4], 43.8%; in the data set with Trypanosoma cruzi [5], 96.2%.

For `O=C1CN(CCCCCCl)c2ccc([N+](=O)[O-])cc2N1`, the Activity is reported as 47.5% in the data set on Trypanosoma cruzi [1]; 32.3% in the data set with J774 [2]; 64.5% in the data set on J774 [3]; 0% in the data set with J774 [6]; 27.7% in the data set with Trypanosoma cruzi [4]; 42.9% with Trypanosoma cruzi [5].

On to `CN1C(=O)CN(CCCCCl)c2ccc([N+](=O)[O-])cc21`, for which the Activity in the data set on Trypanosoma cruzi [1] is reported as 99%; in the data set with J774 [2], 0%; in the data set with J774 [3] it was 96.8%; in the data set on Trypanosoma cruzi [8], 39.33%; in the data set with Trypanosoma cruzi [4], 19.9%; in the data set with Trypanosoma cruzi [5] it was 69.1%.

Consider `CN1CC(=O)Nc2cc([N+](=O)[O-])ccc21`, for which the Activity in the data set on Trypanosoma cruzi [1] is reported as 34.5%; in the data set with Trypanosoma cruzi [4], 17.8%; with Trypanosoma cruzi [5] it was 30.1%.

`O=C1C[N+]2(CCCCC2)c2ccc([N+](=O)[O-])cc2N1.[Cl-]`: the Activity was 26.2% in the data set with Trypanosoma cruzi [1], 27.2% with Trypanosoma cruzi [4] and 34% in the data set on Trypanosoma cruzi [5].

For the origin of these results see ChEMBL document CHEMBL1811905, “Ligand-based discovery of novel trypanosomicidal drug-like compounds: in silico identification and experimental support” (Eur J Med Chem, 2011).
